Laboratory results taken from the supplement of paper PMC12494721.
Structures can show the parent of a compound that is named as a salt.

Experiments:
Settings in all cases: incubation time: 27 h, anaerobic, 37 °C
[1] = system: Klebsiella aerogenes DSM 30053; assay: growth (OD595) fold change vs plate DMSO controls (fold change (ratio)); higher = more growth
[2] = system: Ruminococcus gnavus DSM 108212; assay: as above
[3] = system: Klebsiella aerogenes DSM 30053; assay: fold change of Histamine concentration vs plate DMSO controls (fold change (ratio)); higher = more amine produced
Procedure: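 Dose-response follow-up: bacteria (E. coli IAI1, K. aerogenes DSM 30053, C. sporogenes DSM 1664, R. gnavus DSM 108212) were grown anaerobically in mGAM at 37 °C for 27 h with compound at 0.6125-20 µM. Amines were measured in the whole culture by targeted LC-MS/MS. Metabolite fold change and OD595 fold change are relative to plate DMSO controls; n=2 biological replicates. OD fold changes are not clipped, so slightly negative values mean no growth.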

[4] = system: Klebsiella aerogenes DSM 30053; assay: fold change of Putrescine concentration vs plate DMSO controls (fold change (ratio)); higher = more amine produced
[5] = system: Ruminococcus gnavus DSM 108212; assay: fold change of Tryptamine concentration vs plate DMSO controls (fold change (ratio)); higher = more amine produced
[6] = system: Klebsiella aerogenes DSM 30053; assay: fold change of Cadaverine concentration vs plate DMSO controls (fold change (ratio)); higher = more amine produced
[7] = system: Ruminococcus gnavus DSM 108212; assay: fold change of 2-Phenylethylamine concentration vs plate DMSO controls (fold change (ratio)); higher = more amine produced
[8] = system: Clostridium sporogenes DSM 1664; assay: growth (OD595) fold change vs plate DMSO controls (fold change (ratio)); higher = more growth
[9] = system: Clostridium sporogenes DSM 1664; assay: fold change of Tryptamine concentration vs plate DMSO controls (fold change (ratio)); higher = more amine produced
Escherichia coli IAI1 [10] = assay: growth (OD595) fold change vs plate DMSO controls (fold change (ratio)); higher = more growth
Escherichia coli IAI1 [11] = assay: fold change of Putrescine concentration vs plate DMSO controls (fold change (ratio)); higher = more amine produced
Escherichia coli IAI1 [12] = assay: fold change of Cadaverine concentration vs plate DMSO controls (fold change (ratio)); higher = more amine produced

N[C@@H]1CCCCN(c2c(F)cc3c(=O)c(C(=O)O)cn(C4CC4)c3c2Cl)C1 [Besifloxacin hydrochloride]
Settings | fold change of 2-Phenylethylamine concentration, [7] | fold change of Cadaverine concentration, [6] | fold change of Histamine concentration, [3] | fold change of Putrescine concentration, [4] | fold change of Tryptamine concentration, [5] | growth, [1] | growth, [2]
0.6125 µM | 1.11 | 0.955 | 1.18 | 1.02 | 1.36 | 1.32 | 1.01
1.25 µM | 0.219 | 1.03 | 0.938 | 1.22 | 0.415 | 0.476 | 0.127
2.5 µM | 0.487 | 1.02 | 0.188 | 1.26 | 0.746 | 0.277 | 0.193
5 µM | 0.44 | 1.02 | 0.166 | 1.36 | 0.657 | 0.336 | 0.207
10 µM | 0.321 | 1 | 0.185 | 1.43 | 0.451 | 0.358 | 0.22
20 µM | 0.296 | 0.981 | 0.241 | 1.4 | 0.385 | 0.302 | 0.182

Oc1c(Cl)cc(Cl)cc1Sc1cc(Cl)cc(Cl)c1O [Bithionol]
Settings | fold change of Tryptamine concentration, [9] | growth, [8]
0.6125 µM | 1.09 | 1.23
1.25 µM | 1.06 | 1.2
2.5 µM | 1.07 | 0.906
5 µM | 0.891 | 0.716
10 µM | 0.0764 | 0.142
20 µM | 0.0165 | -0.0314

COC(=O)N/N=C/c1c[n+]([O-])c2ccccc2[n+]1[O-] [Carbadox]
Settings | fold change of Tryptamine concentration, [9] | growth, [8]
0.6125 µM | 0.852 | 1.09
1.25 µM | 0.79 | 0.89
2.5 µM | 0.724 | 0.999
5 µM | 0.739 | 1.04
10 µM | 0.774 | 0.742
20 µM | 0.343 | 0.333

Cn1nnnc1SCC1=C(C(=O)O)N2C(=O)[C@@H](NC(=O)[C@H](O)c3ccccc3)[C@H]2SC1 [Cefamandole sodium salt]
Settings | fold change of 2-Phenylethylamine concentration, [7] | fold change of Tryptamine concentration, [5] | growth, [2]
0.6125 µM | 0.85 | 0.992 | 1.26
1.25 µM | 0.767 | 0.847 | 1.29
2.5 µM | 0.996 | 1.2 | 1.53
5 µM | 0.492 | 0.675 | 0.889
10 µM | 0.244 | 0.357 | 0.479
20 µM | 0.178 | 0.263 | 0.481

CO[C@@]1(NC(=O)C2SC(=C(C(N)=O)C(=O)O)S2)C(=O)N2C(C(=O)O)=C(CSc3nnnn3C)CS[C@@H]21 (stereo not given in full) [Cefotetan]
Settings | fold change of Cadaverine concentration, Escherichia coli IAI1 [12] | fold change of Putrescine concentration, Escherichia coli IAI1 [11] | growth, Escherichia coli IAI1 [10]
0.6125 µM | 1.08 | 0.781 | 0.849
1.25 µM | 1.22 | 1.01 | 0.812
2.5 µM | 1.18 | 0.823 | 0.978
5 µM | 2.07 | 2.04 | 0.728
10 µM | 2.24 | 2.6 | 0.123
20 µM | 2.29 | 1.48 | 0.0366

CN(C)CCn1nnnc1SCC1=C(C(=O)O)N2C(=O)[C@@H](NC(=O)Cc3csc(N)n3)[C@H]2SC1 [Cefotiam hydrochloride]
Settings | fold change of Cadaverine concentration, Escherichia coli IAI1 [12] | fold change of Putrescine concentration, Escherichia coli IAI1 [11] | fold change of Tryptamine concentration, [9] | growth, Escherichia coli IAI1 [10] | growth, [8]
0.6125 µM | 1.29 | 0.767 | 1.02 | 0.969 | 0.8
1.25 µM | 1.27 | 0.89 | 0.833 | 1.03 | 0.293
2.5 µM | 1.71 | 2.91 | 0.0314 | 0.906 | 0.273
5 µM | 1.34 | 0.839 | 0.0234 | -0.0152 | -0.0402
10 µM | 0.568 | 0.15 | 0.025 | -0.055 | -0.0341
20 µM | 0.594 | 0.148 | 0.0225 | -0.0576 | -0.0328

Cc1cc(O)c(C(=O)N[C@@H](C(=O)N[C@@H]2C(=O)N3C(C(=O)O)=C(CSc4nnnn4C)CS[C@H]23)c2ccc(O)cc2)cn1 [Cefpiramide]
Settings | fold change of 2-Phenylethylamine concentration, [7] | fold change of Cadaverine concentration, Escherichia coli IAI1 [12] | fold change of Putrescine concentration, Escherichia coli IAI1 [11] | fold change of Tryptamine concentration, [5] | growth, Escherichia coli IAI1 [10] | growth, [2]
0.6125 µM | 0.656 | 1.44 | 0.827 | 0.773 | 0.836 | 1.28
1.25 µM | 0.288 | 1.57 | 1.34 | 0.388 | 0.802 | 0.921
2.5 µM | 0.158 | 1.97 | 3.19 | 0.226 | 0.44 | 0.902
5 µM | 0.132 | 2.19 | 2.27 | 0.183 | 0.259 | 0.827
10 µM | 0.107 | 2.26 | 1.28 | 0.154 | 0.00195 | 0.698
20 µM | 0.131 | 2.23 | 0.966 | 0.147 | -0.0159 | 0.575

O=C(N[C@H](CO)[C@H](O)c1ccc([N+](=O)[O-])cc1)C(Cl)Cl [Chloramphenicol]
Settings | fold change of 2-Phenylethylamine concentration, [7] | fold change of Tryptamine concentration, [5] | growth, [2]
0.6125 µM | 1 | 1.05 | 0.858
1.25 µM | 0.839 | 0.822 | 0.8
2.5 µM | 0.648 | 0.595 | 0.814
5 µM | 0.601 | 0.577 | 0.765
10 µM | 0.477 | 0.506 | 0.647
20 µM | 0.174 | 0.175 | 0.204

Cc1ncc([N+](=O)[O-])n1C [Dimetridazole]
Settings | fold change of Tryptamine concentration, [9] | growth, [8]
0.6125 µM | 0.869 | 1.15
1.25 µM | 0.772 | 1.1
2.5 µM | 0.685 | 0.842
5 µM | 0.184 | 1.1
10 µM | 0.0282 | -0.0122
20 µM | 0.0226 | -0.0151

C[C@@H](O)[C@H]1C(=O)N2C(C(=O)O)=C(S[C@@H]3CN[C@H](CNS(N)(=O)=O)C3)[C@H](C)[C@H]12 [Doripenem monohydrate]
Settings | fold change of 2-Phenylethylamine concentration, [7] | fold change of Tryptamine concentration, [5] | growth, [2]
0.6125 µM | 0.242 | 0.35 | 1.74
1.25 µM | 0.158 | 0.206 | 0.893
2.5 µM | 0.118 | 0.16 | 2.1
5 µM | 0.119 | 0.15 | 0.381
10 µM | 0.0974 | 0.121 | 0.355
20 µM | 0.111 | 0.128 | 0.36

CS(=O)(=O)c1ccc([C@@H](O)[C@@H](CF)NC(=O)C(Cl)Cl)cc1 [Florfenicol]
Settings | fold change of 2-Phenylethylamine concentration, [7] | fold change of Tryptamine concentration, [5] | fold change of Tryptamine concentration, [9] | growth, [2] | growth, [8]
0.6125 µM | 0.644 | 0.662 | 0.86 | 0.826 | 1.14
1.25 µM | 0.572 | 0.537 | 0.636 | 0.757 | 0.685
2.5 µM | 0.509 | 0.516 | 0.0416 | 0.681 | 0.0218
5 µM | 0.311 | 0.393 | 0.0331 | 0.386 | -0.0331
10 µM | 0.203 | 0.261 | 0.0302 | 0.252 | -0.0315
20 µM | 0.199 | 0.241 | 0.0273 | 0.0641 | -0.0323

CC1CCc2cc(F)cc3c(=O)c(C(=O)O)cn1c23 (stereo not given) [Flumequine]
Settings | fold change of Tryptamine concentration, [9] | growth, [8]
0.6125 µM | 1.03 | 1.02
1.25 µM | 1.06 | 1.04
2.5 µM | 1.11 | 1
5 µM | 0.996 | 0.948
10 µM | 0.569 | 0.659
20 µM | 0.0662 | 0.202

COc1c(N2C[C@@H]3CCCN[C@@H]3C2)c(F)cc2c(=O)c(C(=O)O)cn(C3CC3)c12 [Moxifloxacin]
Settings | fold change of 2-Phenylethylamine concentration, [7] | fold change of Tryptamine concentration, [5] | growth, [2]
0.6125 µM | 2.13 | 2.33 | 0.813
1.25 µM | 2.4 | 2.83 | 0.562
2.5 µM | 2.64 | 3.17 | 0.528
5 µM | 2.66 | 3.27 | 0.491
10 µM | 1.29 | 2 | 0.279
20 µM | 0.274 | 0.511 | 0.119

OC[C@H]1O[C@@H](n2cnc3cncnc32)[C@H](O)[C@@H]1O [Nebularine]
Settings | fold change of 2-Phenylethylamine concentration, [7] | fold change of Tryptamine concentration, [5] | growth, [2]
0.6125 µM | 0.725 | 0.84 | 0.842
1.25 µM | 0.65 | 0.755 | 0.629
2.5 µM | 0.367 | 0.503 | 0.339
5 µM | 0.321 | 0.464 | 0.336
10 µM | 0.413 | 0.552 | 0.336
20 µM | 0.434 | 0.585 | 0.333

CCn1cc(C(=O)O)c(=O)c2cc(F)c(N3CCNCC3)cc21 [Norfloxacin]
Settings | fold change of 2-Phenylethylamine concentration, [7] | fold change of Cadaverine concentration, [6] | fold change of Histamine concentration, [3] | fold change of Putrescine concentration, [4] | fold change of Tryptamine concentration, [5] | fold change of Tryptamine concentration, [9] | growth, [1] | growth, [2] | growth, [8]
0.6125 µM | 1.3 | 0.969 | 1.18 | 1.02 | 1.44 | 0.911 | 1.14 | 1.36 | 1.02
1.25 µM | 1.98 | 1.02 | 0.775 | 1.21 | 2.07 | 0.589 | 0.479 | 0.823 | 0.736
2.5 µM | 1.23 | 1 | 0.571 | 1.29 | 1.45 | 0.0459 | 0.363 | 0.713 | 0.00966
5 µM | 1.2 | 1 | 0.19 | 1.31 | 1.32 | 0.035 | 0.384 | 0.628 | 0.0175
10 µM | 1.25 | 1.01 | 0.262 | 1.37 | 1.41 | 0.0429 | 0.385 | 0.607 | 0.0423
20 µM | 1.38 | 1 | 0.237 | 1.37 | 1.51 | 0.0345 | 0.256 | 0.425 | 0.00666

CO[C@H]1/C=C/O[C@@]2(C)Oc3c(C)c(O)c4c(O)c(c5c(nc6cc(C)ccn65)c4c3C2=O)NC(=O)/C(C)=C\C=C\[C@H](C)[C@H](O)[C@@H](C)[C@@H](O)[C@@H](C)[C@H](OC(C)=O)[C@@H]1C [Rifaximin]
Settings | fold change of Tryptamine concentration, [9] | growth, [8]
0.6125 µM | 0.601 | 1.05
1.25 µM | 0.0574 | 0.257
2.5 µM | 0.03 | -0.0262
5 µM | 0.0292 | -0.0255
10 µM | 0.0294 | -0.0254
20 µM | 0.0294 | -0.0277
